Measured values published in US20260199365A1, “BIS-SULFONAMIDE SHIP1 ACTIVATORS” (The Research Foundation for the State University of New York, priority 2022, published 2026).

Biological target: T1, recombinant human truncated SHIP1 (tSHIP1) (Homo sapiens, UniProt Q92835)
T1 construct: tSHIP1 (SHIP1, residues 397-864) was amplified from pET24TEV-tSHIP1; His tag; made in house; host or cells: E. coli BL21
T1 sequence (Q92835 397-864): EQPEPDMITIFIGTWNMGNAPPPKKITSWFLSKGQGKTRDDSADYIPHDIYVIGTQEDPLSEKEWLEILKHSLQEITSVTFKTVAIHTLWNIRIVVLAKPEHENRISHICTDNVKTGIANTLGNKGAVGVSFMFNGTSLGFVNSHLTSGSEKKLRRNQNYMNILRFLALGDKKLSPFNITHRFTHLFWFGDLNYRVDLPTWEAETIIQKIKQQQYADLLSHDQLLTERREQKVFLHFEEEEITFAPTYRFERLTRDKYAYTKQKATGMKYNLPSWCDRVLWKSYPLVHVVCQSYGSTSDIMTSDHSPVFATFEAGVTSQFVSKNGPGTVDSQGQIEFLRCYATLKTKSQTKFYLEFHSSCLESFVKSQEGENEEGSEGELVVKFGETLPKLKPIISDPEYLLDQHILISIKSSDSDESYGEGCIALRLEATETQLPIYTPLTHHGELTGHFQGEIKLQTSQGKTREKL
Test: Malachite Green Phosphatase Release Assay (SHIP1 phosphatase activity)
Format: biochemical
Conditions: for Phosphatase activity in the Malachite Green Assay, analog concentration 125 μM: 125 μM analog; for Phosphatase activity in the Malachite Green Assay, analog concentration 125 μM / Phosphatase activity in the Malachite Green Assay, analog concentration 250 μM / Phosphatase activity in the Malachite Green Assay, analog concentration 500 μM: 100 μM PI(3,4,5)P3-diC8 substrate, normalized to vehicle control (DMSO) = 100%; for Phosphatase activity in the Malachite Green Assay, analog concentration 250 μM: 250 μM analog; for Phosphatase activity in the Malachite Green Assay, analog concentration 500 μM: 500 μM analog, >100% activation, <100% inhibition; for SHIP1 activator activity in the malachite green assay: discussion of Table 4 (125-500 μM); for Malachite (SHIP1), 125 μM / Malachite (SHIP1), 250 μM / Malachite (SHIP1), 500 μM: bis-sulfonamide hybrids
Experimental: ^aPhosphatase activity for SHIP1 and SHIP2 enzyme as determined in the malachite green assay. Results were normalized to the phosphatase activity level from vehicle control (DMSO) used as 100% activity. Values >100% are attributed to activation, while values <100% show inhibition of the enzyme compared to the control. The assay was performed at the indicated concentration of the small molecule with 100 μM PI(3,4,5)P3-diC8 as the substrate. ^bnd=not determined, compound 23 was insoluble.
Cloning and expression of tSHIP1 of truncated human SHIP1 protein (tSHIP1) from human whole blood mRNA have been previously described (see Brooks R, Iyer, S., Akada, H., Neelam, S., Russo, C. M., Chisholm, J. D., and Kerr W. G. Coordinate Expansion of Murine Hematopoietic and Mesenchymal Stem Cell Compartments by SHIPi Stem Cells 2015; 33:848). Briefly, tSHIP1 (SHIP1, residues 397-864) was amplified from pET24TEV-tSHIP1. Plasmids were extracted with Midi Prep (Qiagen) and sequences were verified by sequencing of the entire expression regions. The plasmids were then transformed into E. coli BL21 (New England Biolabs). Fresh colonies were amplified in 1 L LB at 37° C., shaking at 250 rpm until OD600 nm reached 0.6. Protein expression was induced with […] IPTG and incubation was continued at 16° C., shaking at 250 rpm for 16 h. Following centrifugation, bacteria pellets were stored overnight at −20° C. Protein was extracted form bacterial cell pellet using BugBuster HT (Millipore), according to manufacturer's recommendations. The His-tagged protein was purified by FPLC using HisTrapHP 5 ml column (Cytiva Life Sciences) at a 5 ml/min flow rate and 10 mM-1M imidazole gradient in Buffer A (20 mM Tris pH 8.0, 300 mM NaCl, 10 mM imidazole, 5 mM β-mercaptoethanol). Fractions containing active protein by Malachite Green Phosphatase Release Assay (Echelon, see below) were pooled, concentrated and buffer exchanged to reduce imidazole concentration by centrifugation using Pierce Protein Concentrators 30KMWCO PES, (ThermoFisher Scientific). Protein was aliquoted and stored at −80° C. in a mixture of Buffer A (without β-ME) and 50% glycerol.
Malachite Green Phosphatase Release Assays: Malachite Green Phosphatase Release Assays (Echelon Biosciences) were performed with recombinant human truncated SHIP1 (tSHIP1) (Brooks, 2015) and SHIP2 (Echelon Biosciences). Briefly, serial dilutions of the compounds dissolved in DMSO were added to the recombinant enzymes diluted in reaction buffer Rx (50 mM Hepes pH 7.4, 150 mM NaCl, 1 mM MgCl2, 0.25 mM EDTA) in triplicate reactions in 96-well plates. Reactions were incubated for 2 min at room temperature. […] of 1 mM Phosphatidylinositol 3,4,5-trisphosphate diC8 (PI(3,4,5)P3diC8) (Echelon Biosciences) was added to each reaction to a final concentration of 100 μM in a final volume of […]. Following 20 min incubation at 37° C., 100 μL of Malachite Green Solution (Echelon Biosciences) was added to each well and plates were incubated at room temperature in the dark for 15 min. Plates were then read at 620 nm on a plate reader (Synergy 2, BioTek).

| SMILES | Phosphatase activity in the Malachite Green Assay, analog concentration 125 μM | Phosphatase activity in the Malachite Green Assay, analog concentration 250 μM | Phosphatase activity in the Malachite Green Assay, analog concentration 500 μM | SHIP1 activator activity in the malachite green assay | Malachite (SHIP1), 125 μM | Malachite (SHIP1), 250 μM | Malachite (SHIP1), 500 μM |
| --- | --- | --- | --- | --- | --- | --- | --- |
| Cc1sc(S(=O)(=O)N2CCSCC2)cc1NC(=O)CNS(=O)(=O)c1ccccc1[N+](=O)[O-] [Compound K391, N-[2-Methyl-5-(thiomorpholine-4-sulfonyl)thiophen-3-yl]-2-(2-nitrobenzenesulfonamido) acetamide] | 117% | 133% | 163% | quite active |  |  |  |
| Cc1sc(S(=O)(=O)N2CCSCC2)cc1NC(=O)CNS(=O)(=O)c1cccc([N+](=O)[O-])c1 [Compound K392, N-[2-methyl-5-(thiomorpholine-4-sulfonyl)thiophen-3-yl]-2-(3-nitrobenzenesulfonamido) acetamide] |  | 102% | 106% | disappointing |  |  |  |
| Cc1sc(S(=O)(=O)N2CCSCC2)cc1NC(=O)[C@@H](Cc1ccccc1)NS(=O)(=O)c1ccc(F)cc1 [Compound K395, (2R)-2-(4-Fluorobenzenesulfonamido)-N-[2-methyl-5-(thiomorpholine-4-sulfonyl)thiophen-3-yl]-3-phenylpropanamide] | 112% | 106% | 106% |  |  |  |  |
| Cc1sc(S(=O)(=O)N2CCSCC2)cc1NC(=O)[C@H](Cc1ccccc1)NS(=O)(=O)c1ccc(F)cc1 [Compound K396, (2S)-2-(4-Fluorobenzenesulfonamido)-N-[2-methyl-5-(thiomorpholine-4-sulfonyl)thiophen-3-yl]-3-phenylpropanamide] | 71% | 74% | 130% |  |  |  |  |
| O=C(CNS(=O)(=O)c1ccc(F)cc1)Nc1ccc(S(=O)(=O)N2CCSCC2)cc1 [Compound K399, 2-(4-Fluorobenzenesulfonamido)-N-[4-(thiomorpholine-4-sulfonyl)phenyl] acetamide] | 112% | 105% | 130% | Activity was maintained |  |  |  |
| O=C(CNS(=O)(=O)c1ccc(F)cc1)Nc1cccc(S(=O)(=O)N2CCSCC2)c1 [Compound K400, 2-(4-Fluorobenzenesulfonamido)-N-[3-(thiomorpholine-4-sulfonyl)phenyl]acetamide] | 94% | 97% | 107% | less active |  |  |  |
| O=C(CNS(=O)(=O)c1ccc(F)cc1)Nc1cc(S(=O)(=O)N2CCSCC2)sc1Cl [Compound K401, N-[2-Chloro-5-(thiomorpholine-4-sulfonyl)thiophen-3-yl]-2-(4-fluorobenzenesulfonamido) acetamide] | 102% | 109% | 125% | nearly equipotent as the parent K306 structure |  |  |  |
| Cc1sc(S(=O)(=O)N2CCSCC2)cc1NC(=O)CN1C(=O)c2ccccc2S1(=O)=O [Compound K402, N-[2-methyl-5-(thiomorpholine-4-sulfonyl)thiophen-3-yl]-2-(1,1,3-trioxo-2,3-dihydro-1-benzothiazol-2-yl) acetamide] | 109% | 131% | 161% | nearly as potent as 69 |  |  |  |
| Cc1sc(S(=O)(=O)N2CCSCC2)cc1NC(=O)[C@@H](NS(=O)(=O)c1ccc(F)cc1)c1ccccc1 [Compound K409, (2S)-2-(4-Fluorobenzenesulfonamido)-N-[2-methyl-5-(thiomorpholine-4-sulfonyl)thiophen-3-yl]-2-phenylacetamide] | 94% | 107% | 134% |  |  |  |  |
| O=C(Nc1ccc(S(=O)(=O)N2CCCCC2)cc1)[C@@H]1CCCN1S(=O)(=O)c1ccccc1C(F)(F)F [Compound K420] |  |  |  |  | 99% | 112% | 138% |
| Cc1sc(S(=O)(=O)N2CCCCC2)cc1NC(=O)[C@@H]1CCCN1S(=O)(=O)c1ccccc1C(F)(F)F [Compound K421] |  |  |  |  | 96% | 122% | 158% |
| Cc1sc(S(=O)(=O)N2CCCCC2)cc1NC(=O)[C@@H]1CCCN1S(=O)(=O)c1ccc(C(F)(F)F)cc1 [Compound K422] |  |  |  |  | 96% | 103% | 126% |
| CCCCNS(=O)(=O)c1ccc(NC(=O)[C@@H]2CCCN2S(=O)(=O)c2ccccc2C(F)(F)F)cc1 [Compound K424] |  |  |  |  | 79% | 84% | 91% |
| CCCCNS(=O)(=O)c1ccc(NC(=O)[C@@H]2CCCN2S(=O)(=O)c2ccc(C(F)(F)F)cc2)cc1 [Compound K425] |  |  |  |  | 75% | 80% | 81% |
| O=C(CNS(=O)(=O)c1ccc(C(F)(F)F)cc1)Nc1ccc(S(=O)(=O)N2CCCCC2)cc1 [Compound K426] |  |  |  |  | 75% | 63% | 74% |
| O=C(CNS(=O)(=O)c1ccccc1C(F)(F)F)Nc1ccc(S(=O)(=O)N2CCCCC2)cc1 [Compound K427] |  |  |  |  | 80% | 88% | 116% |
